Reference: patent US20250041282A1, “METHOD FOR TREATING INFLAMMATORY PULMONARY DISEASE” (FU JEN CATHOLIC UNIVERSITY, priority 2021, published 2025)

What was measured:
Type in all cases: cell-based, mouse
[1] = tested on: RAW264.7 macrophages; test: Western blotting of LPS-stimulated macrophage lysates
Text: In brief, cell lysate was separated by 10% SDS-PAGE and transferred to a PVDF membrane (Hybond™-P, Amersham, Piscataway, NJ, USA). The blots were probed with anti-p38 (Catalogue Number: 8690P), anti-p-p38 (Thr180/Tyr182; Catalogue Number: 4511P), anti-ERK44/42 (Catalogue Number: 4695P), anti-p-ERK44/42 (Thr202/Tyr204; Catalogue Number: 4370P), anti-JNK (Catalogue Number: 9258P), anti-p-JNK (Thr183/Tyr185; Catalogue Number: 4668P), anti-p65 (Catalogue Number: 8242S), anti-STAT3 (Catalogue Number: 12640S), anti-p-STAT3 (Tyr705; Catalogue Number: 9145S) and anti-RANTES (Catalogue Number: 2989S) antibodies were provided by Cell Signaling Technology, Inc. (Danvers, MA, USA). Anti-Lamin A/C (Catalogue Number: 101127) antibodies were obtained from GeneTex, Inc. (San Antonio, TX, USA). Anti-β-Actin (Catalogue Number: SC-47778) and anti-COX2 (Catalogue Number: SC-1746) antibody was obtained from Santa Cruz Biotechnology, Inc. (Dallas, Texas, USA). The anti-iNOS (Catalog Number: 610329) antibody was obtained from BD transduction Lab. (San Jose, CA, USA). Bound antibodies were visualized by […] staining (Western Lighting Plus ECL; PerkinElmer, Wellesley, MA, USA) with autoradiography using FUJI Medical X-ray film (Fuji Corporation, Kofu, Yamanashi, Japan) or a MultiGel-21 multifunctional imaging system (TOPBIO, New Taipei, Taiwan). The intensity of the western blot bands was quantified by ImageJ software. The quantitative immunoblot data were normalized to the internal control protein and are expressed as the relative ratio of the treatment group to the control. The data represent the mean±S.D. of at least three independent experiments.

[2] = tested on: RAW264.7 macrophages; test: ELISA of cytokines in cell culture media
Description: RANTES (RayBiotech), IL-1β and IL-6 (eBioscience, San Diego, CA, USA) concentrations in cell culture media and mouse serum were measured using ELISA kits according to the manufacturer's instructions. The plates were measured at […] using an Epoch microplate spectrophotometer (BioTek Instruments, Winooski, VT, USA). The concentrations of RANTES, IL-1β and IL-6 in the samples were determined by standard curves.
For identifying the potential signaling pathways which regulate the secretion of IL-6 and RANTES induced by LPS stimulation, RAW264.7 macrophages were pretreated with various kinase inhibitors for 30 min and then stimulated with/without 100 ng/ml LPS for 24 h; the cell culture media was harvested for ELISA assay. […] (FIG. 6A). To investigate whether FJU-C28 could mediate the transcriptional activity of NF-κB (p65), the translocation of NF-κB p65 was examined in LPS-stimulated macrophages.

[3] = tested on: RAW264.7 macrophages; test: Morphology of LPS-stimulated macrophages; conditions: LPS 24 hours; FIG. 1C
Description: To compare the anti-inflammatory effects of the newly synthesized compound FJU-C28 (FIG. 1A) on LPS-activated murine macrophages to those of the parent compound FJU-C4, RAW264.7 macrophages were pretreated with various concentrations of FJU-Cs for 30 min and then stimulated with or without LPS for 24 hours. […] LPS stimulation changed the shape of macrophages, resulting in dendritic-like cells with multiple vacuoles in the cytoplasm, whereas the untreated cells were round and small. […] This effect was consistent with the findings of the cytotoxicity assay. […] In addition, FJU-C28 suppressed the expression of iNOS and COX2 at doses higher than 5 μM (FIG. 1D).

[4] = tested on: RAW264.7 macrophages; test: Analysis of cell viability (MTT assay); conditions: FIG. 1B
Description: RAW264.7 cells (mouse monocyte/macrophage-like cells) were purchased from the Bioresource Collection and Research Center (Hsinchu, Taiwan). The cells were maintained in DMEM (HyClone, Logan, UT, USA) containing 10% fetal bovine serum (HyClone), MEM nonessential amino acids (HyClone), […] sodium pyruvate (HyClone), and penicillin/streptomycin (HyClone). The cells were incubated at 37° C. in a humidified atmosphere of 5% CO2 and 95% air. RAW264.7 macrophages were pretreated with FJU-Cs (0 to 10 μM) as indicated for 30 min and were then stimulated with/without LPS (100 ng/ml) for 24 h. The remaining cells were evaluated by a 3-(4,5-dimethylthiazol-2-yl)-2,5-diphenyl tetrazolium bromide (MTT) assay. Cells containing formazan crystals were dissolved in DMSO (Merck, Darmstadt, Germany) and quantified at a wavelength of 595 nm using a spectrophotometer (BioTek Instruments, Inc. Winooski, Vermont, USA). Each experiment was repeated at least 3 times.

[5] = LPS-stimulated, at doses higher than 5 μM, FIG. 1D
[6] = LPS-treated macrophages, cell culture media, FIG. 4C/4D

C=CCC1CC(Sc2ccccc2)=CC(=O)N1C(=O)C=C (stereo not drawn) [FJU-C28]
LPS-induced level of p-ERK ([1]; 5 μM and 10 μM, FIG. 6A): dramatically inhibited | LPS-induced level of p-JNK ([1]; 5 μM and 10 μM, FIG. 6A): dramatically inhibited | LPS-induced level of p-p38 ([1]; 5 μM and 10 μM, FIG. 6A): dramatically inhibited | levels of STAT3 protein ([1]; FIG. 8): reducing the levels of STAT3 protein | LPS-induced phosphorylation of STAT3 ([1]; LPS-induced RAW264.7, FIG. 6D): concentration-dependently inhibited | expression of COX2 (immunoblot) [1, 5]: suppressed | expression of iNOS (immunoblot) [1, 5]: suppressed | NF-κB (p65) in nuclear extract (translocation) ([1]; LPS-stimulated, increasing dose, FIG. 6C): nuclear NF-κB (p65) was decreased | LPS-induced protein expression of RANTES (western blot) ([1]; at 6 hours, FIG. 4B): dramatically suppressed | production of IL-1β (ELISA) [2, 6]: dramatically reduced | production of IL-6 (ELISA) [2, 6]: dramatically reduced | LPS-induced expression of RANTES (ELISA) ([2]; at 6 hours or 24 hours, FIG. 4A): dramatically suppressed | LPS-induced changes in macrophage morphology [3]: dramatically inhibited these changes in morphology in a concentration-dependent manner | cytotoxicity ([4]; compared with 10 μM FJU-C4, 24 hours): less cytotoxicity than 10 μM FJU-C4 | LPS-induced cell death ([4]; pretreated 30 min, then LPS 24 hours): protected RAW264.7 macrophages from LPS-induced cell death
